From PMC6410080 (Viruses, 2019)
Structures can show the parent of a compound that is named as a salt. Where two headings read alike, the source gives them in different places.

Columns and labels:
[1] = in vitro; conditions: human
[2] = test system: SFV; assay: microbe, parasite or virus in culture; assay type: cell-based, Semliki Forest virus; conditions: for inhibition at 10 µM / IC50: Semliki Forest virus; for inhibition at 10 µM: M-HeLa, read-out: % inhibition (SFV screen); for IC50: HeLa Kyoto
[3] = in vitro; conditions: human; remark: listed apart in the source
[4] = test system: DENV-2; assay: DENV-2 infection assay / secondary screen (E protein staining); assay type: cell-based, dengue virus serotype 2; conditions: Dengue virus, DENV2, Huh-7, 24 h, read-out: % inhibition (DENV-2 screen)
[5] = test system: HeLa Kyoto cells; conditions: human
[6] = test system: HeLa Kyoto cells; conditions: human, 10 µM

Structure (SMILES) | viability at 10 µM [1] | inhibition at 10 µM ([2]; 7 h) | viability at 10 µM ([3]; % viability (SFV screen)) | inhibition at 10 µM [4] | also measured
CN[C@@H]1C[C@@H](c2ccc(Cl)c(Cl)c2)c2ccccc21 [Indatraline hydrochloride] | 1.66% | 72.2% | 76.4% |  | 
Nc1ncnc2c1ncn2[C@@H]1O[C@H](COP(=O)(O)O)[C@@H](O)[C@H]1O [Adenosine 5'-monophosphate monohydrate] | 105% | 73.4% | 86.8% | -177% | 
CCOC(=O)C1=C(C)NC(C)=C(C(=O)OCC)C1c1ccccc1/C=C/C(=O)OC(C)(C)C [Lacidipine] | 75.7% | 79.8% | 80.6% | 98% | TC50 SFV (7h) ([5]; 7 h): 27700 µM; IC50 ([2]; 7 h, read-out: IC50 SFV): 23.7 µM
CC/C(=C(\c1ccccc1)c1ccc(OCCN(C)C)cc1)c1ccccc1 [Tamoxifen citrate] |  | 98.3% | 61.7% |  | 
[H]/N=C(\N/C(=N/[H])NCCCCCCNC(=N)NC(=N)Nc1ccc(Cl)cc1)Nc1ccc(Cl)cc1 [Chlorhexidine] | 16.6% | 96.6% | 96.2% |  | 
CSc1ccc2c(c1)C(N1CCN(C)CC1)Cc1ccccc1S2 (stereo not drawn) [Methiothepin mesylate] | 0.1% | 84% | 66.6% |  | 
C1CCC(C(CC2CCCCN2)C2CCCCC2)CC1 (stereo not drawn) [Perhexiline maleate] | 1.42% | 101% | 62.9% |  | 
Cc1ccc(S(=O)(=O)NC(=O)NN2CCCCCC2)cc1 [Tolazamide] | 116% | 101% | 113% | 36.5% | 
C=C(NC(=O)C(=C)NC(=O)c1csc(C2=N[C@@H]3c4csc(n4)[C@H]4NC(=O)c5csc(n5)[C@H]([C@](C)(O)[C@@H](C)O)NC(=O)[C@H]5CSC(=N5)/C(=C/C)NC(=O)[C@H]([C@@H](C)O)NC(=O)c5csc(n5)[C@]3(CC2)NC(=O)[C@H](C)NC(=O)C(=C)NC(=O)[C@H](C)NC(=O)[C@H]([C@@H](C)CC)N[C@@H]2C=Cc3c([C@H](C)O)cc(nc3[C@H]2O)C(=O)O[C@@H]4C)n1)C(N)=O [Thiostrepton] | 18.7% | 65.9% | 88.5% |  | 
CN1CCN(CCCN2c3ccccc3Sc3ccc(C(F)(F)F)cc32)CC1 [Trifluoperazine dihydrochloride] | 0.13% | 96.5% | 93.9% |  | 
Nc1ncn([C@@H]2O[C@H](CO)[C@@H](O)[C@H]2O)c(=O)n1 [5-azacytidine] | 106% | 99.8% | 75.5% | 9.67% | % viability (SFV screen) [6]: 75.30%; % inhibition (SFV screen) ([2]; 10 µM): 101.05%
Nc1ccn([C@@H]2O[C@H](CO)[C@@H](O)C2(F)F)c(=O)n1 [Gemcitabine] | 61.8% | 67% | 102% | -137% | 
CCN(CC)CCOc1ccc(C(=C(Cl)c2ccccc2)c2ccccc2)cc1 [Clomiphene, Clomiphene citrate (Z,E)] | 41.8% | 77.8% | 97.1% | 99.3% | TC50 SFV (7h) [5]: 27400 µM
C[C@@H]1C[C@@H]([C@H](O)CC2CC(=O)NC(=O)C2)C(=O)[C@@H](C)C1 [Cycloheximide] |  | 99.9% |  | 64.5% | viability at 24 h, 10 µM [1]: 60.1%; viability at 10 µM [3]: 94%
Nc1c2ccccc2nc2ccccc12 [Aminacrine] | 23.3% | 89.2% | 87.4% |  | 
Clc1cc(Cl)c(OCC#CI)cc1Cl [Haloprogin] | 104% | 99.8% | 75.4% | 1.64% | 
CCCCN(CCCC)CCC(O)c1cc2c(Cl)cc(Cl)cc2c2cc(C(F)(F)F)ccc12 (stereo not drawn) [Halofantrine, Halofantrine hydrochloride] | 89.4% | 102% | 96.9% | 83.6% | TC50 SFV (7h) [5]: 290400 µM; IC50 ([2]; 7 h, read-out: IC50 SFV): 116 µM; IC50 ([2]; read-out: IC50 SFV (7 h)): > 100 µM
O=C1NCCN1CCN1CCC(c2cn(-c3ccc(F)cc3)c3ccc(Cl)cc23)CC1 [Sertindole] | 26.6% | 67.2% | 105% |  | 
CN1CCN(CCCN2c3ccccc3Sc3ccc(Cl)cc32)CC1 [Prochloperazine, Prochlorperazine dimaleate] | 46.7% | 73.3% | 84% | 98.9% | TC50 SFV (7h) [5]: 22700 µM
CSc1ccc2c(c1)N(CCC1CCCCN1C)c1ccccc1S2 (stereo not drawn) [Thioridazine hydrochloride] | 5.89% | 89.1% | 71.3% |  | 
c1ccc2c(c1)OCC(C1=NCCN1)O2 (stereo not drawn) [Idazoxan hydrochloride] | 71.2% | 94.5% | 67.6% | 48.8% | 
OC(c1cc(C(F)(F)F)nc2c(C(F)(F)F)cccc12)C1CCCCN1 (stereo not drawn) [Mefloquine hydrochloride] | 7.25% | 94.3% | 72.7% | -22.1% | 
C/C=C(/C)C(=O)O[C@H]1C(C)=C2[C@H]([C@@H]1OC(=O)CCCCCCC)[C@@](C)(OC(C)=O)C[C@H](OC(=O)CCC)[C@@]1(O)[C@H]2OC(=O)[C@@]1(C)O [Thapsigargin] | 53.3% | 83.4% | 103% | 98% | 
